{
  "source": "patent US20210369740A1",
  "about": "“Synthesis of Anti-inflammatory and Anti-cancer Agents through Fungal Transformation of Mibolerone” (priority 2021, published 2021)",
  "key": {"[1]": {"molecular_target": "T1, human placental aromatase enzyme (Homo sapiens, UniProt P11511)", "T1 construct": "from tissue; host or cells: human placenta", "T1 sequence (P11511 1-503)": "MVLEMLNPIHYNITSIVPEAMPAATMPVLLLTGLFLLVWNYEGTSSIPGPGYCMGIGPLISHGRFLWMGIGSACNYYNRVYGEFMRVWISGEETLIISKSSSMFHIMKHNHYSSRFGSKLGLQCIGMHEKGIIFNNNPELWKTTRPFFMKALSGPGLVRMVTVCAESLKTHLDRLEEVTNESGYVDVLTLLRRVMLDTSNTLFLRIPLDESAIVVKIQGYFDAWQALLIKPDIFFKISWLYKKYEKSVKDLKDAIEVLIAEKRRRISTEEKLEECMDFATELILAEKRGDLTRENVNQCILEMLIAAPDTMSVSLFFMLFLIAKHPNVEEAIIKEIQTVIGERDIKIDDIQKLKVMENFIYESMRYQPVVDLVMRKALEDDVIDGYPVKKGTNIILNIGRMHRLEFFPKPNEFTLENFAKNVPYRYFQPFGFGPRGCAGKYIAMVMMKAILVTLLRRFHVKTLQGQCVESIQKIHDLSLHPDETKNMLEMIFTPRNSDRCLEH", "test": "Human placental aromatase inhibition assay", "assay_type": "biochemical"}, "[2]": {"test_system": "T-cell proliferation", "test": "T-Lymphocyte proliferation assay (PHA-activated PBMCs, Alamar blue)", "assay_type": "cell-based", "conditions": "human PBMC T-cells activated with phytohemagglutinin-L, 48 h, in vitro; for IC50: T-cell, read-out: IC50 against T-cell proliferation"}, "[3]": {"test_system": "nitric oxide (NO) production", "test": "Nitric oxide assay (LPS-induced J774.2 macrophages, Griess method)", "assay_type": "cell-based, mouse"}, "[4]": {"test_system": "TNF-α production", "test": "Cytokine inhibition assay (TNF-α by ELISA in LPS-stimulated, PMA-differentiated THP-1 cells)", "assay_type": "cell-based, human", "conditions": "for IC50: Homo sapiens, read-out: IC50 against TNF-α production"}, "[5]": {"test": "Cytotoxicity against BJ normal cell line", "conditions": "human, BJ normal human fibroblast cells"}, "[6]": {"conditions": "J774.2 mouse macrophages, LPS-induced, in vitro, read-out: IC50 against nitric oxide (NO) production"}, "[7]": {"conditions": "THP-1 cells differentiated with PMA, LPS-stimulated, 4 h, in vitro"}, "[8]": {"conditions": "testosterone to 17β-estradiol conversion, in vitro, read-out: IC50 against human placental aromatase enzyme"}, "[9]": {"conditions": "Mus musculus, J774.2, read-out: IC50 against nitric oxide (NO) production"}},
  "note": "Structures can show the parent of a compound that is named as a salt. Where two headings read alike, the source gives them in different places.",
  "data": [
    {"smiles": "C[C@@H]1CC2=CC(=O)CC[C@@H]2[C@H]2CC[C@@]3(C)[C@@H](CC[C@]3(C)O)[C@@H]21", "note": "[Compound 1, Mibolerone]", "values": [
      {"measurement": "IC50", "setting": "[1]", "result": "0.372 ± 0.009", "unit": "µM"},
      {"measurement": "IC50", "setting": "[2]", "result": "6.55 ± 0.6", "unit": "µM"},
      {"measurement": "IC50", "setting": "[3]; [6]", "result": "46 ± 2.4", "unit": "µM"},
      {"measurement": "IC50", "setting": "[4]; [7]", "result": "115.8 ± 0.7", "unit": "µM"},
      {"measurement": "IC50", "setting": "[5]", "result": "80 ± 2.1", "unit": "µM"}
    ]},
    {"smiles": "CC(=O)CCCCn1c(=O)c2c(ncn2C)n(C)c1=O", "note": "[pentoxifylline, reference compound]", "values": [
      {"measurement": "IC50", "setting": "[4]; THP-1, 4 h", "result": "341 ± 2.1", "unit": "µM"}
    ]},
    {"smiles": "C[C@@H]1Cc2cc(O)ccc2[C@@H]2[C@@H]1[C@@H]1CC[C@](C)(O)[C@@]1(C)C[C@@H]2O", "note": "[Compound 3, 11β,17β-dihydroxy-7α,17α-dimethyl-estra-1,3,5-triene-3-one]", "values": [
      {"measurement": "IC50", "setting": "[1]; [8]", "result": "0.317 ± 0.012", "unit": "µM"},
      {"measurement": "IC50", "setting": "[2]", "result": "4.24 ± 0.2", "unit": "µM"},
      {"measurement": "IC50", "setting": "[3]; [9]", "result": "49.1 ± 0.4", "unit": "µM"},
      {"measurement": "IC50 against TNF-α production", "setting": "[4]; [7]", "result": "inactive"}
    ]},
    {"smiles": "CNC(=N)NCCC[C@H](N)C(=O)O", "note": "[L-NMMA, NG-Monomethyl-L-arginine, monoacetate salt, reference compound]", "values": [
      {"measurement": "IC50", "setting": "[3]; [6]", "result": "128.2 ± 0.8", "unit": "µM"}
    ]},
    {"smiles": "C[C@@H]1C(=O)C2CC(=O)CC[C@@H]2[C@H]2CC[C@@]3(C)[C@@H](CC[C@]3(C)O)[C@@H]21", "note": "(stereo partly drawn) [Compound 5, 17β-hydroxy-7α,17α-dimethyl-5α-estrane-3,6-dione]", "values": [
      {"measurement": "IC50 against human placental aromatase enzyme", "setting": "[1]; testosterone to 17β-estradiol conversion, in vitro", "result": "inactive"},
      {"measurement": "IC50 against T-cell proliferation", "setting": "[2]", "result": "inactive"},
      {"measurement": "IC50", "setting": "[3]; [6]", "result": "52.7 ± 0.3", "unit": "µM"},
      {"measurement": "IC50 against TNF-α production", "setting": "[4]; [7]", "result": "inactive"}
    ]},
    {"smiles": "C[C@@H]1C[C@H]2C[C@H](O)CC[C@]2(O)[C@H]2CC[C@@]3(C)[C@@H](CC[C@]3(C)O)[C@H]12", "note": "[Compound 4, 3α,10β,17β-trihydroxy-7α,17α-dimethyl-5α-estrane]", "values": [
      {"measurement": "IC50", "setting": "[1]; [8]", "result": "0.072 ± 0.001", "unit": "µM"},
      {"measurement": "IC50 against T-cell proliferation", "setting": "[2]", "result": "inactive"},
      {"measurement": "IC50", "setting": "[3]; [9]", "result": "58 ± 0.1", "unit": "µM"},
      {"measurement": "IC50", "setting": "[4]; THP-1, 4 h", "result": "28.5 ± 0.07", "unit": "µM"}
    ]},
    {"smiles": "C[C@]12C=CC(=O)C=C1CC[C@@H]1[C@@H]2[C@@H](O)C[C@@]2(C)[C@H]1CC[C@]2(O)C(=O)CO", "note": "[prednisolone, reference compound]", "values": [
      {"measurement": "IC50", "setting": "[2]", "result": "9.75 ± 0.03", "unit": "µM"}
    ]},
    {"smiles": "CC1=CC2=CC(=O)CC[C@@H]2[C@H]2CC[C@@]3(C)[C@@H](CC[C@]3(C)O)[C@H]12", "note": "[Compound 2, 17β-hydroxy-7α,17α-dimethylestr-4,6-diene-3-one]", "values": [
      {"measurement": "IC50", "setting": "[1]; [8]", "result": "0.31 ± 0.028", "unit": "µM"},
      {"measurement": "IC50", "setting": "[2]", "result": "3.83 ± 0.3", "unit": "µM"},
      {"measurement": "IC50", "setting": "[3]; [6]", "result": "54.4 ± 0.3", "unit": "µM"},
      {"measurement": "IC50 against TNF-α production", "setting": "[4]; [7]", "result": "inactive"}
    ]}
  ]
}
